Experimental data reported in patent US11814390B2, “Crystalline forms of 2-[3-[4-amino-3-(2-fluoro-4-phenoxy-phenyl)-1H-pyrazolo[3,4-D]pyrimidin-1-yl]piperidine-1-carbonyl]-4-methyl-4-[4-(oxetan-3-yl)piperazin-1-yl]pent-2-enenitrile” (Principia Biopharma Inc., priority 2020, dated 2023).
“Also recorded” adds a separate entry of the source.

Columns and labels:
[1] = Conversion between crystalline forms over time / relative thermodynamic stability at room temperature; assay type: physicochemical
Protocol: Several crystallization experiments were conducted in as part of a polymorph study for Compound (I). The experiments comprised different crystallization techniques such as suspension equilibration experiments, precipitations, cooling crystallizations, and vapor diffusion experiments.

[2] = Water content upon storage at high relative humidity (hygroscopicity); assay type: physicochemical; details: storage at 85% relative humidity (RH)

water content upon storage [2] | SMILES | conversion of crystalline form over time ([1]; over time) | relative thermodynamic stability of crystalline form ([1]; at room temperature)
less than 1% | CC(C)(C=C(C#N)C(=O)N1CCC[C@@H](n2nc(-c3ccc(Oc4ccccc4)cc3F)c3c(N)ncnc32)C1)N1CCN(C2COC2)CC1 [crystalline Form A, (R)-2-[3-[4-amino-3-(2-fluoro-4-phenoxy-phenyl)pyrazolo[3,4-d]pyrimidin-1-yl]piperidine-1-carbonyl]-4-methyl-4-[4-(oxetan-3-yl)piperazin-1-yl]pent-2-enenitrile] | may convert to crystalline Form B over time | 
 | CC(C)(C=C(C#N)C(=O)N1CCC[C@@H](n2nc(-c3ccc(Oc4ccccc4)cc3F)c3c(N)ncnc32)C1)N1CCN(C2COC2)CC1 [Crystalline Form B, (R)-2-[3-[4-amino-3-(2-fluoro-4-phenoxy-phenyl)pyrazolo[3,4-d]pyrimidin-1-yl]piperidine-1-carbonyl]-4-methyl-4-[4-(oxetan-3-yl)piperazin-1-yl]pent-2-enenitrile] |  | may be thermodynamically more stable than crystalline Form A; also recorded: may be more thermodynamically more stable than crystalline Form C
